Here are results for 25 molecules from US10689377B2 (Mirati Therapeutics, Inc., priority 2017, dated 2020).

SMILES strings stand for the structures.

KRas G12C, sequence (P01116 1-188 isoform P01116-2 G12C): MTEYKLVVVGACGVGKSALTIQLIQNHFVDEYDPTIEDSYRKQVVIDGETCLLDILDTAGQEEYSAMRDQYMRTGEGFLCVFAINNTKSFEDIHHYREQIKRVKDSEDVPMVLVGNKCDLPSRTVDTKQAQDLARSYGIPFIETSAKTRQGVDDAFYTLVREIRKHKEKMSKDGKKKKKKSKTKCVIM

For this test, the target named is KRas G12C (Homo sapiens, UniProt P01116, G12C). Nature of the test: Cellular inhibition of KRas G12C measured by Phospho-ERK in NCI-H358 cells. The format is cell-based. The conditions noted are these: pERK(Thr202/Tyr204) normalized with GAPDH, NCI-H358 cells, 3 hours; read-out: IC50. In a few lines:
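Following 8-12 h attachment, NCI-H358 cells got serially diluted compound (0.5% DMSO) for 3 hours. Cells were then fixed, permeabilized with cold methanol, and stained for pERK(Thr202/Tyr204) and GAPDH. Ratios were converted to percent of DMSO control, with IC50 obtained by four-parameter regression.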
`C=CC(=O)N1CCN(c2nc(OC[C@H]3CCN(C)C3)nc3c2CCN(c2cc(O)cc4ccccc24)C3)CC1` [Example 188, (S)-1-(4-(7-(3-hydroxynaphthalen-1-yl)-2-((1-methylpyrrolidin-3-yl)methoxy)-5,6,7,8-tetrahydropyrido[3,4-d]pyrimidin-4-yl)piperazin-1-yl)prop-2-en-1-one]: the 50% inhibitory concentration (IC50) was in the range of 0.0001 to 1 µM.

For `C=CC(=O)N1CCN(c2nc(OCCCN3CCN(C)CC3)nc3c2CCN(c2cc(O)cc4ccccc24)C3)CC1` [Example 82, 1-(4-(7-(3-hydroxynaphthalen-1-yl)-2-(3-(4-methylpiperazin-1-yl)propoxy)-5,6,7,8-tetrahydropyrido[3,4-d]pyrimidin-4-yl)piperazin-1-yl)prop-2-en-1-one], the IC50 is 0.0001 to 1 µM.

As to `C=CC(=O)N1CCN(c2nc(N3CCC(N(C)C)CC3)nc3c2CCN(c2cc(O)cc4ccccc24)C3)CC1` [Example 17, 1-(4-(2-(4-(dimethylamino)piperidin-1-yl)-7-(3-hydroxynaphthalen-1-yl)-5,6,7,8-tetrahydropyrido[3,4-d]pyrimidin-4-yl)piperazin-1-yl)prop-2-en-1-one], the IC50 is over 1 µM.

For the molecule `C=CC(=O)N1CCN(c2nc(NCCCN3CCOCC3)nc3c2CCN(c2cc(O)cc4ccccc24)C3)CC1` [Example 133, 1-[4-[7-(3-hydroxy-1-naphthyl)-2-(3-morpholinopropylamino)-6,8-dihydro-5H-pyrido[3,4-d]pyrimidin-4-yl]piperazin-1-yl]prop-2-en-1-one], the IC50 is over 1 µM.

As for `C=CC(=O)N1CCN(c2nc(OCCCN3C[C@H]4C[C@@H]3CO4)nc3c2CCN(c2ccccc2C(F)(F)F)C3)CC1CC#N` (stereo partly drawn) [Example 297, 2-[4-[2-[3-[(1R,4R)-2-oxa-5-azabicyclo[2.2.1]heptan-5-yl]propoxy]-7-[2-(trifluoromethyl)phenyl]-6,8-dihydro-5H-pyrido[3,4-d]pyrimidin-4-yl]-1-prop-2-enoyl-piperazin-2-yl]acetonitrile], the 50% inhibitory concentration (IC50) is 0.0001 to 1 µM.

Consider `C=CC(=O)N1CCN(c2nc(O[C@H](C)CN(C)C)nc3c2CCN(c2cc(O)cc4ccccc24)C3)[C@@H](C)C1` [Example 115, 1-((S)-4-(2-(((R)-1-(dimethylamino)propan-2-yl)oxy)-7-(3-hydroxynaphthalen-1-yl)-5,6,7,8-tetrahydropyrido[3,4-d]pyrimidin-4-yl)-3-methylpiperazin-1-yl)prop-2-en-1-one], for which the IC50 lay in the range of 0.0001 to 1 µM.

Turning to `C=C(F)C(=O)N1CCN(c2nc(OC[C@@H]3CCCN3C)nc3c2CCN(c2cccc4ccccc24)C3)C[C@@H]1CC#N` [Example 602, 2-[(2S)-1-(2-fluoroprop-2-enoyl)-4-[2-[[(2S)-1-methylpyrrolidin-2-yl]methoxy]-7-(1-naphthyl)-6,8-dihydro-5H-pyrido[3,4-d]pyrimidin-4-yl]piperazin-2-yl]acetonitrile], the 50% inhibitory concentration (IC50) was in the range of 0.0001 to 1 µM.

Consider `C=CC(=O)N1CCN(c2nc(N3CCN(C)CC3)nc3c2CCN(c2cc(O)cc4ccccc24)C3)CC1` [Example 12, 1-(4-(7-(3-hydroxynaphthalen-1-yl)-2-(4-methylpiperazin-1-yl)-5,6,7,8-tetrahydropyrido[3,4-d]pyrimidin-4-yl)piperazin-1-yl)prop-2-en-1-one], for which the IC50 was over 1 µM.

Turning to `C=CC(=O)N1CCN(c2nc(OC[C@@H]3C[C@H](OC)CN3C)nc3c2CCN(c2cccc4ccccc24)C3)CC1CC#N` (stereo partly drawn) [Example 222, 2-(1-acryloyl-4-(2-(((2S,4S)-4-methoxy-1-methylpyrrolidin-2-yl)methoxy)-7-(naphthalen-1-yl)-5,6,7,8-tetrahydropyrido[3,4-d]pyrimidin-4-yl)piperazin-2-yl)acetonitrile], the IC50 is 0.0001 to 1 µM.

Regarding `C=CC(=O)N1CCN(c2nc(OCCN3CCCCC3)nc3c2CCN(c2cccc4ccccc24)C3)CC1CC#N` (stereo not shown) [Example 303, 2-[4-[7-(1-naphthyl)-2-[2-(1-piperidyl)ethoxy]-6,8-dihydro-5H-pyrido[3,4-d]pyrimidin-4-yl]-1-prop-2-enoyl-piperazin-2-yl]acetonitrile], the IC50 lay in the range of 0.0001 to 1 µM.

Turning to `C=CC(=O)N1CCN(c2nc(OC[C@@H]3CCCN3C)nc3c2CCN(c2c(C)ccc4cn[nH]c24)C3)CC1CC#N` (stereo partly shown) [Example 238], the concentration for half-maximal inhibition (IC50) lay within 0.0001 to 1 µM.

For the molecule `C=CC(=O)N1CCN(c2nc(OCCN(C)C)nc3c2CCN(c2cc(O)cc4ccccc24)C3)C(CO)C1` (stereo not shown) [Example 53, 1-(4-(2-(2-(dimethylamino)ethoxy)-7-(3-hydroxynaphthalen-1-yl)-5,6,7,8-tetrahydropyrido[3,4-d]pyrimidin-4-yl)-3-(hydroxymethyl)piperazin-1-yl)prop-2-en-1-one], the IC50 was over 1 µM.

With `C=CC(=O)N1CCN(c2nc(OC[C@@H]3CCCN3CC)nc3c2CCN(c2cccc4ccccc24)C3)C[C@@H]1CC#N` [Example 400, 2-((S)-1-acryloyl-4-(2-(((S)-1-ethylpyrrolidin-2-yl)methoxy)-7-(naphthalen-1-yl)-5,6,7,8-tetrahydropyrido[3,4-d]pyrimidin-4-yl)piperazin-2-yl)acetonitrile], the IC50 was in the range of 0.0001 to 1 µM.

In the case of `C=CC(=O)N1CCN(c2nc(O[C@H](C)CN(C)C)nc3c2CCN(c2cc(O)cc(OC(F)(F)F)c2)C3)CC1` [Example 91, (R)-1-(4-(2-((1-(dimethylamino)propan-2-yl)oxy)-7-(3-hydroxy-5-(trifluoromethoxy)phenyl)-5,6,7,8-tetrahydropyrido[3,4-d]pyrimidin-4-yl)piperazin-1-yl)prop-2-en-1-one], the IC50 was over 1 µM.

Turning to `C=CC(=O)N1CCN(c2nc(OC[C@@H]3CCCN3C)nc3c2CCN(c2cccc(F)c2C)C3)CC1CC#N` (stereo partly drawn) [Example 411, 2-(1-acryloyl-4-(7-(3-fluoro-2-methylphenyl)-2-(((S)-1-methylpyrrolidin-2-yl)methoxy)-5,6,7,8-tetrahydropyrido[3,4-d]pyrimidin-4-yl)piperazin-2-yl)acetonitrile], the half-maximal inhibitory concentration (IC50) fell in the range of 0.0001 to 1 µM.

On to `C=CC(=O)N1CCN(c2nc(OC[C@@H]3CCCN3C)nc3c2CCN(c2ccncc2C(F)(F)F)C3)CC1CC#N` (stereo partly drawn) [Example 375, 2-(1-acryloyl-4-(2-(((S)-1-methylpyrrolidin-2-yl)methoxy)-7-(3-(trifluoromethyl)pyridin-4-yl)-5,6,7,8-tetrahydropyrido[3,4-d]pyrimidin-4-yl)piperazin-2-yl)acetonitrile], for which the IC50 is over 1 µM.

As for `C=C(F)C(=O)N1CCN(c2nc(OC[C@@H]3CCCN3C)nc3c2CCN(c2cncc4ccc(F)cc24)C3)C[C@@H]1CC#N` [Example 609, 2-[(2S)-4-[7-(6-fluoro-4-isoquinolyl)-2-[[(2S)-1-methylpyrrolidin-2-yl]methoxy]-6,8-dihydro-5H-pyrido[3,4-d]pyrimidin-4-yl]-1-(2-fluoroprop-2-enoyl)piperazin-2-yl]acetonitrile], the IC50 lay in the range of 0.0001 to 1 µM.

In the case of `C=CC(=O)N1CCN(c2nc(OC[C@H]3CN(C)C4(CC4)CO3)nc3c2CCN(c2cccc4ccccc24)C3)C[C@@H]1CC#N` [Example 448, 2-((S)-1-Acryloyl-4-(2-(((R)-4-methyl-7-oxa-4-azaspiro[2.5]octan-6-yl)methoxy)-7-(naphthalen-1-yl)-5,6,7,8-tetrahydropyrido[3,4-d]pyrimidin-4-yl)piperazin-2-yl)acetonitrile], the half-maximal inhibitory concentration (IC50) lay within 0.0001 to 1 µM.

As for `C=CC(=O)N1CCN(c2nc(OC[C@@H]3CCCN3C)nc3c2CCN(c2cccc4cc(F)ccc24)C3)CC1CC#N` (stereo partly drawn) [Example 290, 2-[4-[7-(6-fluoro-1-naphthyl)-2-[[(2S)-1-methylpyrrolidin-2-yl]methoxy]-6,8-dihydro-5H-pyrido[3,4-d]pyrimidin-4-yl]-1-prop-2-enoyl-piperazin-2-yl]acetonitrile], the IC50 lay in the range of 0.0001 to 1 µM.

Take `C=CC(=O)N1CCN(c2nc(OCCN3CCC(C#N)CC3)nc3c2CCN(c2cc(O)cc4ccccc24)C3)CC1` [Example 81, 1-(2-((4-(4-acryloylpiperazin-1-yl)-7-(3-hydroxynaphthalen-1-yl)-5,6,7,8-tetrahydropyrido[3,4-d]pyrimidin-2-yl)oxy)ethyl)piperidine-4-carbonitrile]: the IC50 is over 1 µM.

As for `C=CC(=O)N1CCN(c2nc(OCc3ncc[nH]3)nc3c2CCN(c2cccc4ccccc24)C3)C[C@@H]1CC#N` [Example 351, 2-[(2S)-4-[2-(1H-imidazol-2-ylmethoxy)-7-(1-naphthyl)-6,8-dihydro-5H-pyrido[3,4-d]pyrimidin-4-yl]-1-prop-2-enoyl-piperazin-2-yl]acetonitrile], the IC50 was in the range of 0.0001 to 1 µM.

For `C=CC(=O)N1CCN(c2nc(OCCCN3C[C@H]4C[C@@H]3CO4)nc3c2CCN(c2ccccc2C(F)(F)F)C3)CC1CC#N` (stereo partly drawn) [Example 280, 2-(4-(2-(3-((1R,4R)-2-oxa-5-azabicyclo[2.2.1]heptan-5-yl)propoxy)-7-(2-(trifluoromethyl)phenyl)-5,6,7,8-tetrahydropyrido [3,4-d]pyrimidin-4-yl)-1-acryloylpiperazin-2-yl)acetonitrile], the IC50 was 0.0001 to 1 µM.

In the case of `C=CC(=O)N1CCN(c2nc(OC[C@H]3CN(C)CCO3)nc3c2CCN(c2cccc4cccc(Cl)c24)C3)C[C@@H]1CC#N` [Example 363, 2-[(2S)-4-[7-(8-chloro-1-naphthyl)-2-[[(2R)-4-methylmorpholin-2-yl]methoxy]-6,8-dihydro-5H-pyrido[3,4-d]pyrimidin-4-yl]-1-prop-2-enoyl-piperazin-2-yl]acetonitrile], the IC50 was 0.0001 to 1 µM.

On to `C=CC(=O)N1CCN(c2nc(OC[C@@H]3CCCN3C)nc3c2CCN(c2cccc4cccc(C)c24)C3)C[C@H]1CC#N` [Example 461, 2-[(2R)-4-[7-(8-methyl-1-naphthyl)-2-[[(2S)-1-methylpyrrolidin-2-yl]methoxy]-6,8-dihydro-5H-pyrido[3,4-d]pyrimidin-4-yl]-1-prop-2-enoyl-piperazin-2-yl]acetonitrile], for which the IC50 lay within 0.0001 to 1 µM.

`C=C(C)C(=O)N1CCN(c2nc(OC[C@@H]3CCCN3C)nc3c2CCN(c2cccc4ccccc24)C3)CC1CC#N` (stereo partly drawn) [Example 261, 2-[1-(2-methylprop-2-enoyl)-4-[2-[[(2S)-1-methylpyrrolidin-2-yl]methoxy]-7-(1-naphthyl)-6,8-dihydro-5H-pyrido[3,4-d]pyrimidin-4-yl]piperazin-2-yl]acetonitrile]: the IC50 is over 1 µM.

In general, IC50 refers to the point on the concentration scale where inhibition reaches its midpoint.
